# From ChEMBL document CHEMBL5465560, “Selectivity Literature for EUbOPEN Chemogenomic Library” (2024)
# Key:
# [1] = target: RAC-alpha serine/threonine-protein kinase (Homo sapiens, UniProt P31749); assay: Selectivity interaction (Kinase panel (literature)) EUB0001199aCl AKT1; details: at 1 µM
# [2] = target: T1, Ephrin type-B receptor 2 (Homo sapiens) (UniProt P29323); assay: Selectivity interaction (KinomeScan (DiscoverX)) EUB0001079a EPHB2; details: at 1 µM
# T1 sequence (whole entry): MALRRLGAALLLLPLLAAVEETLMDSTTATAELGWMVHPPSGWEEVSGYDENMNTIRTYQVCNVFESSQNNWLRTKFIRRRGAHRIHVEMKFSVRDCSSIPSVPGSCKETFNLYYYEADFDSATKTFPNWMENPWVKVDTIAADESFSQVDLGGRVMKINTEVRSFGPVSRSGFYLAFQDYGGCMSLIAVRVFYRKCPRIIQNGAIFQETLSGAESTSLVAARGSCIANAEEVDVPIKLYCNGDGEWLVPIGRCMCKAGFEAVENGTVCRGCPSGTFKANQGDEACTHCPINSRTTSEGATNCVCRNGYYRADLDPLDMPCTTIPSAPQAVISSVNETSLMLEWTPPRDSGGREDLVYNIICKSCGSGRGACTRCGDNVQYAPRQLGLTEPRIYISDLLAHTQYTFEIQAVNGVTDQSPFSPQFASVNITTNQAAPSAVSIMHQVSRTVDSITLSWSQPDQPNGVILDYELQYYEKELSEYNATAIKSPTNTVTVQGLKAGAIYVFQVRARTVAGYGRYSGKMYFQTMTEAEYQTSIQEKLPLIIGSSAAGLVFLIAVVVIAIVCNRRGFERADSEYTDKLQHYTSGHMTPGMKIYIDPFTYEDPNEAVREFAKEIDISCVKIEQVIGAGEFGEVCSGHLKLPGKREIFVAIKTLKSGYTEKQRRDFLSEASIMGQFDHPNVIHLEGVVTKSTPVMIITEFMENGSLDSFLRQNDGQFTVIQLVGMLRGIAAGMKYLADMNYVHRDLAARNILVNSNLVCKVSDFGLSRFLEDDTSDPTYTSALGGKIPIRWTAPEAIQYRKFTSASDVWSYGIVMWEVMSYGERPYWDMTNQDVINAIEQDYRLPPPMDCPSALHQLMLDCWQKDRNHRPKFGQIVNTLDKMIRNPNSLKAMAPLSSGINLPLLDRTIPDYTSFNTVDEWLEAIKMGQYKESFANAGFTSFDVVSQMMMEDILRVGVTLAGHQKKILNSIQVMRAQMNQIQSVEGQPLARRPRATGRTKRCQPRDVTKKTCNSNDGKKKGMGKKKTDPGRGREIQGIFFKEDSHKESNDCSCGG
# [3] = target: Vascular endothelial growth factor receptor 1 (Homo sapiens) (UniProt P17948); assay: Selectivity interaction (KinomeScan (DiscoverX)) EUB0000699a FLT1; details: at 10 µM
# [4] = target: Activin receptor type-2B (Homo sapiens) (UniProt Q13705); assay: Selectivity interaction (KinomeScan (DiscoverX)) EUB0000092b ACVR2B; details: at 10 µM
# [5] = target: T2, Serine/threonine-protein kinase Nek3 (Homo sapiens) (UniProt P51956); assay: Selectivity interaction (KinomeScan (DiscoverX)) EUB0000092b NEK3; details: at 10 µM
# T2 sequence (whole entry): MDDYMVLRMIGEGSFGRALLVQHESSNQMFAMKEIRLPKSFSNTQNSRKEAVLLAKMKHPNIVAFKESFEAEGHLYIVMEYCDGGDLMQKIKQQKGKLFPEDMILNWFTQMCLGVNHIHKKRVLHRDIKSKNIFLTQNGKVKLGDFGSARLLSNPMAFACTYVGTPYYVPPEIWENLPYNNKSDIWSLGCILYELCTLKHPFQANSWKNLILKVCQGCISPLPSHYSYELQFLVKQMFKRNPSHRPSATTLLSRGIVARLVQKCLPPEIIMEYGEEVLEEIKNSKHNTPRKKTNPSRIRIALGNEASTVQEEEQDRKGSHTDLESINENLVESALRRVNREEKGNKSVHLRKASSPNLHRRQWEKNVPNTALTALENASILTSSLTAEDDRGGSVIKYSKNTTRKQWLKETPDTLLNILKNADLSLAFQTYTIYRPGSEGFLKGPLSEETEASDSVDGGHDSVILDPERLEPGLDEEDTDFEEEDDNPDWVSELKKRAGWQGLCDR
# [6] = target: Macrophage colony-stimulating factor 1 receptor (Homo sapiens) (UniProt P07333); assay: Selectivity interaction (Kinase screening (Nanosyn)) EUB0000604a CSF1R
# Focal adhesion kinase 1 = Focal adhesion kinase 1 (Homo sapiens, UniProt Q05397); assay: Selectivity interaction (Ambit KINOMEscan and KiNATiv profiling in Jurkat cells) EUB0000090b PTK2; type: cell-based; details: at 1 µM
# [7] = target: 5'-AMP-activated protein kinase catalytic subunit alpha-1 (Homo sapiens, UniProt Q13131); assay: Selectivity interaction (KinomeScan (DiscoverX)) EUB0000618a PRKAA1; details: at 10 µM
# 5'-AMP-activated protein kinase catalytic subunit alpha-1, sequence (Q13131 whole entry, looked up): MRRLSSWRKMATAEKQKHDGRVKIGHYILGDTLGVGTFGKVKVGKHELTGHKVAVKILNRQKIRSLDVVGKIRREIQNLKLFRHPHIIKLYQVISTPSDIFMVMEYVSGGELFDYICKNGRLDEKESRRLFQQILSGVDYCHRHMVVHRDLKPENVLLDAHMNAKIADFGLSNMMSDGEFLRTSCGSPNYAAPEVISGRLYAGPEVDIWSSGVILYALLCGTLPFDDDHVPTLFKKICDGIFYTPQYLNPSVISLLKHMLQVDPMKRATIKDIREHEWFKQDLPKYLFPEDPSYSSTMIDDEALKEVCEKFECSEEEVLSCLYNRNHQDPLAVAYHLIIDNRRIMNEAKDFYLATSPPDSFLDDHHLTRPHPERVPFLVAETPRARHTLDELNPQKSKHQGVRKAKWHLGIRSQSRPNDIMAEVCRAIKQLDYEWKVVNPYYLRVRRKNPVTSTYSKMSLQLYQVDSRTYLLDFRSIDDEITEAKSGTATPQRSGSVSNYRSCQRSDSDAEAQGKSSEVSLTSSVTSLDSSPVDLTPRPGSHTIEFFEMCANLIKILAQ
# [8] = target: Tyrosine-protein kinase HCK (Homo sapiens) (UniProt P08631); details: at 10 µM
# [9] = target: Interleukin-1 receptor-associated kinase 1 (Homo sapiens) (UniProt P51617); details: at 10 µM
# Interleukin-1 receptor-associated kinase 1 (Homo sapiens), sequence (P51617 whole entry, looked up, the tested form may be a part): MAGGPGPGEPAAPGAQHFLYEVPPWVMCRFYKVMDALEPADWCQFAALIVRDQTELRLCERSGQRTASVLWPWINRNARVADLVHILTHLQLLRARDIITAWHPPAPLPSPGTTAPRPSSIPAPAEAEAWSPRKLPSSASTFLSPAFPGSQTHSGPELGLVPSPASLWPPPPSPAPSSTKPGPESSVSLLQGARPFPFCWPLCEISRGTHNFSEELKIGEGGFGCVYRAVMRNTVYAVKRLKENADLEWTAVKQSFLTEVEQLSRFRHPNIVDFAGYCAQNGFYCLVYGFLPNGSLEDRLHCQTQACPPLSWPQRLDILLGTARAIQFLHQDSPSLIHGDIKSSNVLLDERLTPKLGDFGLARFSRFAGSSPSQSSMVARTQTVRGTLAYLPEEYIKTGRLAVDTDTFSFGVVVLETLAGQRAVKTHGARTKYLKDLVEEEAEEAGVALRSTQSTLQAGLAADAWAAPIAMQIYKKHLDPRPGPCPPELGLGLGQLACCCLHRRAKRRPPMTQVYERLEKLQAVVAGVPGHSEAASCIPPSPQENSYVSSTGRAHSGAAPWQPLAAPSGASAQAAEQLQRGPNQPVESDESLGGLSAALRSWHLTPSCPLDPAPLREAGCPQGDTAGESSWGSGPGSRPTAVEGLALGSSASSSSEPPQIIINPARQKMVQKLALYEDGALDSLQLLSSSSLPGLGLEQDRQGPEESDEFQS
# [10] = target: Phosphatidylinositol 4-phosphate 3-kinase C2 domain-containing subunit beta (Homo sapiens) (UniProt O00750); details: at 10 µM
# [11] = target: CDK4/Cyclin D3 (Homo sapiens) (UniProt P11802+P30281); assay: (§1) Selectivity interaction (KinomeScan (DiscoverX)) EUB0001619a CDK4; type: protein-complex assay; details: at 1 µM
# [12] = target: Cyclin-dependent kinase 4/cyclin D1 (Homo sapiens) (UniProt P11802+P24385); assay: as §1; type: protein-complex assay; details: at 1 µM
# [13] = target: Vascular endothelial growth factor receptor 2 (Homo sapiens, UniProt P35968); assay: Selectivity interaction (SelectScreen profiling (Invitrogen)) EUB0000607a KDR; details: at 2 µM
# [14] = target: Mitogen-activated protein kinase kinase kinase 4 (Homo sapiens) (UniProt Q9Y6R4); assay: Selectivity interaction (KinomeScan (DiscoverX)) EUB0000607a MAP3K4; details: at 10 µM
# Mitogen-activated protein kinase kinase kinase 4 (Homo sapiens), sequence (Q9Y6R4 whole entry): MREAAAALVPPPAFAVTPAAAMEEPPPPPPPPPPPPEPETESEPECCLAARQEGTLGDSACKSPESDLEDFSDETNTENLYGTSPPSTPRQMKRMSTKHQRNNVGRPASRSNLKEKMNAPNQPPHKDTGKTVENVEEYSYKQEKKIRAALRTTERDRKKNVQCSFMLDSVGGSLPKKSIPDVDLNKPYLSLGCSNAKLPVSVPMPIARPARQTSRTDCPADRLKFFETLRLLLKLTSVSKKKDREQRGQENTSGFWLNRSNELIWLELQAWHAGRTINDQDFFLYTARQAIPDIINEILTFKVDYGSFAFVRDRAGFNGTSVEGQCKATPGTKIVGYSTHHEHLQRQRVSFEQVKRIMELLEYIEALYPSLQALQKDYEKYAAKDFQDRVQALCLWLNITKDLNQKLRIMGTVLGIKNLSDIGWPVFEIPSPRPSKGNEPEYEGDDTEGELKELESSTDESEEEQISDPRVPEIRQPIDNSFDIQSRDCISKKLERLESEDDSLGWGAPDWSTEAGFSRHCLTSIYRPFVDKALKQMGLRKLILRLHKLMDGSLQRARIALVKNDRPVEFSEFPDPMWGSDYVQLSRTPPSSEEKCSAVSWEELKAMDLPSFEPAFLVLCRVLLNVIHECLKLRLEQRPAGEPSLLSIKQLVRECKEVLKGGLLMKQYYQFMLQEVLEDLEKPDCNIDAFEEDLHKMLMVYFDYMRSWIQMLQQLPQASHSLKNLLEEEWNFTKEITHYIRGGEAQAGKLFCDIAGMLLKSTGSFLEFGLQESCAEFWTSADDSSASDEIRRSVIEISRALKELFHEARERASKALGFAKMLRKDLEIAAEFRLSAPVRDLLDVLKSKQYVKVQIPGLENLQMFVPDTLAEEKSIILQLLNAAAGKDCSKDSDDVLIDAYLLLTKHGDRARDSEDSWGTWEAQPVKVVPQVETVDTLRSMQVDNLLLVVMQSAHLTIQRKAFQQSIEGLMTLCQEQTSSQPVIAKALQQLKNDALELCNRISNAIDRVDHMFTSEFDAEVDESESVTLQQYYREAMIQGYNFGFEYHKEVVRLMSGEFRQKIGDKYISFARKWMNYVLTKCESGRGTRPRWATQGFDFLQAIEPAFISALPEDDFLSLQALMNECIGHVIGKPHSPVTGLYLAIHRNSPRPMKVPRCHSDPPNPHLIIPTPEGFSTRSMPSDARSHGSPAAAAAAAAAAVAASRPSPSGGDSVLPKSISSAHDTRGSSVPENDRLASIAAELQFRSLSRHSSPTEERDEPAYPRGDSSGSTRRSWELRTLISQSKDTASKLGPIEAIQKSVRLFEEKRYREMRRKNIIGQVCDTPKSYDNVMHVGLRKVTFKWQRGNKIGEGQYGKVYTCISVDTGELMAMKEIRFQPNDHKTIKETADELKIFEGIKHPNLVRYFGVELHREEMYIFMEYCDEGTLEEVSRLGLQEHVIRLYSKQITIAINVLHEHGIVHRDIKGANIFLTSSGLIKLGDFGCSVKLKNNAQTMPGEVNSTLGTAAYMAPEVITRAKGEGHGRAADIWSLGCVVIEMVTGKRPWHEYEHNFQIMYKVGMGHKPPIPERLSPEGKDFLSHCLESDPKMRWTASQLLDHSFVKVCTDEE
# [15] = target: Mitogen-activated protein kinase kinase kinase kinase 4 (Homo sapiens, UniProt O95819); assay: Selectivity interaction (KinomeScan (DiscoverX)) EUB0000607a MAP4K4; details: at 10 µM
# Mitogen-activated protein kinase kinase kinase kinase 4, sequence (O95819 2-1239 limits assumed): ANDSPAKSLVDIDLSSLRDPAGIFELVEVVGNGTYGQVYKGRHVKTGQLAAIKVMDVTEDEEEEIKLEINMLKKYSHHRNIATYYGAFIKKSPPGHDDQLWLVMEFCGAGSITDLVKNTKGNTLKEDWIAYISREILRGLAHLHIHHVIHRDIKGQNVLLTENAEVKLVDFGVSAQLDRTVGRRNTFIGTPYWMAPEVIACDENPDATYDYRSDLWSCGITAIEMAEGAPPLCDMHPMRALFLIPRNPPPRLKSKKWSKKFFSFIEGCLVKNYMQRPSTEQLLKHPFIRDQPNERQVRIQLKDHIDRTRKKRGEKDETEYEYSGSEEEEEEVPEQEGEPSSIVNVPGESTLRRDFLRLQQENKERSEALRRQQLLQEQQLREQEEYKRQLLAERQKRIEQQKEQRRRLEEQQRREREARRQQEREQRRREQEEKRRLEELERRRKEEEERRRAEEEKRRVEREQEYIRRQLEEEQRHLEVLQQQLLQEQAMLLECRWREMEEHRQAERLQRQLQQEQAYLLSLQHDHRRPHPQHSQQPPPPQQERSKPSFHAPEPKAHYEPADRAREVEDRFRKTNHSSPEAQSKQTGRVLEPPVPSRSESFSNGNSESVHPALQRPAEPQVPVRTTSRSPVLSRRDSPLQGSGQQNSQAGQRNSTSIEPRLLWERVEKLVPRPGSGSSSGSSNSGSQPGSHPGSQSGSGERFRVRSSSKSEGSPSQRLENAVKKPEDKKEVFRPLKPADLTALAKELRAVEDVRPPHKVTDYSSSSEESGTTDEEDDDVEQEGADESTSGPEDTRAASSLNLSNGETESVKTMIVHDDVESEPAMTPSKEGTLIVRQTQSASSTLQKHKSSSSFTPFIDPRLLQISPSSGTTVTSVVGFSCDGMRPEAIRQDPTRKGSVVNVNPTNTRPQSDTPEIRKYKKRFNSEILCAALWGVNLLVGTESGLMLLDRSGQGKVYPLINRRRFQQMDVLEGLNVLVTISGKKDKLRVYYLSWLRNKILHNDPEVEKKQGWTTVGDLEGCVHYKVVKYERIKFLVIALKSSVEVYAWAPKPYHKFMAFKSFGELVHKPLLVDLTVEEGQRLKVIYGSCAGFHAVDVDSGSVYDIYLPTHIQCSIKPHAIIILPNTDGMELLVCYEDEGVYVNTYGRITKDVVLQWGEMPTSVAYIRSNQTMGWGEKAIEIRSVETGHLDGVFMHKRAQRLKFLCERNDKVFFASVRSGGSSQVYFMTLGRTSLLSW
# [16] = target: Tyrosine-protein kinase Srms (Homo sapiens) (UniProt Q9H3Y6); assay: Selectivity interaction (ProQinase) EUB0000171b SRMS
# Tyrosine-protein kinase Srms (Homo sapiens), sequence (Q9H3Y6 whole entry): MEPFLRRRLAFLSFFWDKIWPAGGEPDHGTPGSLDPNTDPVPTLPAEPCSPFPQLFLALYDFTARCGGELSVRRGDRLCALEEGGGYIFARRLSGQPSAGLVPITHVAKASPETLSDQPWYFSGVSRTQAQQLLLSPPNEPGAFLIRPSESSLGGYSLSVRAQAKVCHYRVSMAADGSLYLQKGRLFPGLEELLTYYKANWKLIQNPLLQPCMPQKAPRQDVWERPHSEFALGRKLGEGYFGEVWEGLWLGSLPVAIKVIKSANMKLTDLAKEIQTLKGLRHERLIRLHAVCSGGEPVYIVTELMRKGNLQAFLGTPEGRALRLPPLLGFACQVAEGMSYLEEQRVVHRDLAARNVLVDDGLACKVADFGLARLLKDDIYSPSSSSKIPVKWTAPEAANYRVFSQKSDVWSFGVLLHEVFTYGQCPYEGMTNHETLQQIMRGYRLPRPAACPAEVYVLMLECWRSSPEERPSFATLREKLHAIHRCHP
# RAC-alpha serine/threonine-protein kinase, sequence (P31749 whole entry): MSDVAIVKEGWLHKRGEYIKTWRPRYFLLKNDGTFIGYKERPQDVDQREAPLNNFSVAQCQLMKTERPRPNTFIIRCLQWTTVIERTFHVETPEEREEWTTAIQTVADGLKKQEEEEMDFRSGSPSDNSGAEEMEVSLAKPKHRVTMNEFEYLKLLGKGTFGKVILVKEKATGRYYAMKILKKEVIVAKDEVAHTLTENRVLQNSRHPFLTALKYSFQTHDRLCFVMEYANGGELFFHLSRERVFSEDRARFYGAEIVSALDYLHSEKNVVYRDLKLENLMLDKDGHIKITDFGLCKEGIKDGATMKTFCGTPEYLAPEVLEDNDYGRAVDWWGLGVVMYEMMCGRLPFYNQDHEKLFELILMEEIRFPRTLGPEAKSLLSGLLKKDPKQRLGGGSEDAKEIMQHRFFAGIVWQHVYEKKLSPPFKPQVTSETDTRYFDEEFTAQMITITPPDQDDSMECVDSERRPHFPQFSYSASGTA
structure (smiles),measurement,setting,value
CN1Cc2nccc(-c3cn(C)nc3-c3ccc(F)cc3)c2C1=O,% of inhibition,[1],-3%
Nc1cnc(N2CCc3cc(S(=O)(=O)Nc4c(F)cc(Cl)cc4F)cc(N4CCCC4=O)c32)nc1 [TP-020n],% of control,[2],87%
CCN(CC)CCCCNc1ncc2cc(-c3cc(OC)cc(OC)c3)c(NC(=O)NC(C)(C)C)nc2n1,% of control,[3],8%
CCC(=O)N1CCN(c2ccc(-n3c(=O)ccc4cnc5ccc(-c6cnc7ccccc7c6)cc5c43)cc2C(F)(F)F)CC1,% of control,[4],42%
same,% of control,[5],100%
Cc1cnc(Nc2ccc(F)cc2Cl)nc1-c1c[nH]c(C(=O)N[C@H](CO)c2cccc(Cl)c2)c1,% of inhibition,[6],6%
CN(C)C/C=C/C(=O)Nc1ccc(C(=O)N2CCCC(Nc3ncc(Cl)c(-c4c[nH]c5ccccc45)n3)C2)cc1 (stereo not drawn),% of control,Focal adhesion kinase 1,74%
O[C@H]1CC[C@H](Nc2ncc3nc(Nc4c(F)cc(F)cc4F)n([C@H]4CCOC4)c3n2)CC1,% of control,[7],99%
Cc1cc([C@@H](C)Nc2ccccc2C(=O)O)c2nc(N3CCOCC3)cc(=O)n2c1 [AZD-6482],% of control,[8],100%
same,% of control,[9],90%
same,% of control,[10],0.4%
N#Cc1cccc(-c2c[nH]c3ncnc(N4CCOCC4)c23)c1,% of control,[11],100%
same,% of control,[12],65%
CNC(=O)Nc1ccc(-c2nc(N3CC4CCC(C3)O4)c3cnn(C4CCC5(CC4)OCCO5)c3n2)cc1,% of inhibition,[13],7%
same,% of control,[14],86%
same,% of control,[15],85%
C=CC(=O)Nc1cccc(C(=O)Nc2ccc(Nc3cc(-c4[nH]c(SC)nc4C)ccn3)cc2)c1,% of control,[16]; at 1 µM,95%
same,% of control,[16]; at 5 µM,92%
